Laboratory results published in US3932664A, “Substituted phenoxyalkyl quaternary ammonium compounds as antiarrhythemic agents” (priority 1974, dated 1976).

Legend:
[1] = system: ouabain-induced ventricular tachycardia in dogs; experiment: conversion of ouabain-induced ventricular tachycardia to normal sinus rhythm in anesthetized dogs; assay type: in vivo, dog; settings: intravenous; for mean duration of sinus rhythm: group of three dogs
Excerpt: Ventricular tachycardia is produced in dogs in a method similar to the method of Lucchesi and Hardman (J. Pharmacol. Exptl. Therap., 132, 372, 1961) by the administration of ouabain. In such operations, a dog is anesthetized by the intravenous administration of pentobarbital sodium at a dosage rate of 30 milligrams per kilogram. A femoral artery is cannulated with polyethylene tubing for measurements of blood pressure. A femoral vein is similarly cannulated for administration of ouabain and administration of the test compound. Hypodermic needle electrodes are employed for recording electrocardiograms. In such operations, ouabain is administered intravenously by infusion at a constant rate via the cannulated femoral vein. The infusion rate is 35 micrograms of ouabain per kilogram of animal body weight per hour. Within 1 to 1.5 hours following the start of the infusion, a ventricular tachycardia is seen to develop.
After ventricular tachycardia is observed, a test compound is administered intravenously by administration of varying amounts of a composition comprising 50 milligrams of the test compound as a sterile solution in 10 milliliters of water containing 0.9 percent sodium chloride. Each dose is administered slowly over a period of 15 to 30 seconds. The compound is administered at an initial dosage rate of 0.25 milligram of test compound per kilogram of animal body weight. Blood pressure and electrocardiogram are observed for 5 minutes after administration. When a complete conversion from the arrhythmic condition to normal sinus rhythm is not observed within the 5 minute period, a second dose of 0.50 milligram of the test compound per kilogram is administered by a similar procedure and blood pressure and heartbeat are similarly observed for 5 minutes. When complete conversion of the ventricular tachycardia to normal sinus rhythm is not observed, the dosage is increased two-fold every five minutes until complete conversion is obtained. The animal is then observed and the duration of the period of normal cardiac rhythm produced by administration of the test compound is recorded as the duration of antiarrhythmic activity. The termination of the period of normal activity is marked by the reappearance of ventricular tachycardia or fibrillation as indicated by the electrocardiogram observations. The antiarrhythmic dosage of test compound sufficient to bring about a complete conversion of the cuabain-induced tachycardia, and the duration of the period of normal cardiac activity are set out below.
The procedure of Example 26 is repeated, employing the compound of Example 1, [ 2-(4-amino-2,6-dibromophenoxy)-ethyl]-dimethyl(2-methylallyl)ammoniumchloride, as a test compound. In these operations two groups of three dogs each are administered the test compound intravenously at anti-arrhythmic dosage rates of 1 and 2 milligrams per kilogram after ectopic ventricular rhythms have been established by continuous infusion of cuabain.

[2] = acute oral toxicity in rats; settings: rat, in vivo, single oral dose
Method: An aqueous solution of [2-(4-amino-2,6-dibromophenoxy)ethyl]dimethyl (2-methylallyl)ammonium chloride is administered orally to several groups of male and female Sprague-Dawley derived rats and male and female Swiss mice (Cox strain). The compound is administered as single oral dosages in varying amounts, and the animals are held to assess toxicity twenty-four hours after administration of the compound.

C=C(C)C[N+](C)(C)CCOc1c(Br)cc(N)cc1Br.[Cl-] [Example 1, [2-(4-amino-2,6-dibromophenoxy)ethyl]-dimethyl(2-methylallyl)ammonium chloride]
minimal effective dose ([1]; Canis lupus familiaris, iv, dog, dose giving complete conversion of ouabain-induced tachycardia to normal sinus rhythm, read-out: Conversion Dose): 0.5 mg/kg
Duration (period of normal cardiac rhythm) ([1]; dog, at conversion dose 0.5 mg/kg): 15 min
mean duration of sinus rhythm ([1]; 1 mg/kg): 12.7 min
mean duration of sinus rhythm ([1]; 2 mg/kg): 26.5 min
conversion of the arrhythmias to sinus rhythm ([1]; two groups of three dogs, 1 and 2 mg/kg): Complete conversion of the arrhythmias to sinus rhythm is observed in all the dogs
LD50 at 24 h ([2]; female rats): 725 mg/kg
LD50 at 24 h ([2]; male rats): 758 mg/kg
